Test results reported in patent publication US12459930B2, “Compounds for the inhibition of unregulated cell growth” (GODAVARI BIOREFINERIES LIMITED, priority 2018, dated 2025).
Like-named read-outs stand apart in the source and are kept apart here.

What was measured:
[1] = tested on: PC3 prostate cancer cell line; assay: Soft agar colony-formation assay, PC3; assay type: cell-based; conditions: 1 week, Alamar Blue, read-out: IC50 in micromolar, PC3 (Soft Agar Assay)
Method: (§1) The Soft Agar Colony-formation Assay is an anchorage-independent growth assay in soft agar, which is one of the most stringent assays for detecting malignant transformation of cells. For this assay, malignant cells are cultured with appropriate controls in soft agar medium for 1-2 weeks. Following this incubation period, formed colonies can either be analyzed morphologically using cell stain and quantifying the number of colonies formed.
(§2) Briefly, for Soft Agar Assay a mixture of 50 ul of 2× medium (taken appropriately as per cell line) and 50 ul of 1.2% Bacto Agar were plated on to each well of 96 well micro titer assay plate. 10 ul of cells (of specific plating efficiency pre standardized for respective cell line) were mixed with 20 ul of 2× medium and 30 ul of 0.8% of Bacto Agar and 1.6 ul of drug (of appropriate concentration) in a vial and transferred to the solidified pre layers of the assay plates. The cells were then allowed to grow and form colonies at 37° C. and 5% C02 for 1 week. An intermittent feeding with 50 ul of appropriate 2× medium was performed after 3 days of experimental set up. 16 ul of Alamar Blue (1.5 mg/ml) was then added to all the wells to quantify the developed colonies. The plates were incubated for 24 hrs at 37° C. Absorbance was then measured at 630 nm. XY graph of log Percent viability was then plotted against log drug concentration.
(§3) Following plating efficiencies were standardized for Soft Agar Assay: […]

[2] = tested on: PC3 prostate cancer cell line; assay: In vitro antiproliferative assay (MTT assay), PC3; assay type: cell-based; conditions: 48 hrs drug incubation, read-out: IC50 in micromolar, PC3 (MTT assay)
Method: (§4) MTT assay is a simple and sensitive assay where, metabolic reducing activity of the cells is measured. The increase of this activity in time is taken as a parameter of cell growth. If treatment with a drug impairs this increase, the action is a consequence of growth inhibition, cell killing or both. […] All cell lines were cultured in a 37° C. incubator with a 5% CO2 environment. Compounds were dissolved in DMSO with a concentration of 0.1M (stock solution). Cells were seeded into 96-well plates at suitable plating efficiency.
(§5) Following plating efficiencies were standardized for MTT assay:
(§6) In the MTT procedure, the cells were plated in 96 well plates as per predetermined plating efficiency (Table1). The plates were then incubated for 24 hrs in 5% CO2 atmosphere at 37° C. Appropriate concentrations of the drugs were then added to the plate and further incubation was carried out for 48 hrs (in 5% CO2 atmosphere at 37° C.). The assay plate was then centrifuged twice at 3000 rpm for 3 mins and supernatant was then discarded. 100 ul of MTT solution (0.5 mg/ml) was then added to each well of the plate and it was further incubated for 4 hrs (in 5% CO2 atmosphere at 37° C.) Following 4 hr incubation, the plate was then centrifuged twice, and supernatant was aspirated off very carefully. 200 ul of DMSO was then added to each well to solubilize. MTT crystals and mixed well by shaking the plate. XY graph of log percent viability was then plotted against log drug concentration.

[3] = tested on: DU145 prostate cancer cell line; assay: In vitro antiproliferative assay (MTT assay), DU145; assay type: cell-based; conditions: 48 hrs drug incubation, read-out: IC50 in micromolar, DU145 (MTT assay)
Method: as §4, §5, §6

[4] = tested on: MDAMB231 spheres (cancer stem cells); assay: In vitro sphere-forming assay (cancer stem cells), MDAMB231 in Mammosphere media; conditions: for 3D sphere count of MDAMB231 in Mammosphere media: 2000 cells/well, n = 6 ± S.D
[5] = tested on: MDAMB231 breast cancer cell line; assay: Soft agar colony-formation assay, MDAMB231; assay type: cell-based; conditions: 1 week, Alamar Blue, read-out: IC50 in micromolar, MDAMB231 (Soft Agar Assay)
Method: as §1, §2, §3

[6] = tested on: PC3 spheres (cancer stem cells); assay: In vitro sphere-forming assay (cancer stem cells), PC3 in Prostosphere media; conditions: for 3D sphere count of PC3 in Prostosphere media: 2000 cells/well, n = 6 ± S.D; for viability at 0.0025 µM: read-out: % Viability of spheres (PC3), 0.0025 uM
[7] = tested on: MDAMB231 breast cancer cell line; assay: In vitro antiproliferative assay (MTT assay), MDAMB231; assay type: cell-based; conditions: 48 hrs drug incubation, read-out: IC50 in micromolar, MDAMB231 (MTT assay)
Method: as §4, §5, §6

[8] = read-out: % Viability of spheres (PC3)
[9] = Homo sapiens, MDA-MB-231, read-out: % Viability of spheres (MDAMB231)
[10] = Homo sapiens, MDA-MB-231, 168 h
[11] = read-out: % Viability of spheres (PC3), 0.025 uM, GCD = 100% viability
[12] = read-out: % Viability of spheres (PC3), 0.25 uM, GCD = 100% viability
[13] = read-out: % Viability of spheres (PC3), 2.5 uM, GCD = 100% viability
[14] = read-out: % Viability of spheres (PC3), 25 uM, GCD = 100% viability

IC50 ([1]; 168 h) [µM]	IC50 ([2]; 48 h) [µM]	IC50 ([3]; Homo sapiens, DU-145, 48 h) [µM]	SMILES	3D sphere count of MDAMB231 in Mammosphere media ([4]; 0.025 uM)	3D sphere count of MDAMB231 in Mammosphere media ([4]; 0.25 uM)	3D sphere count of MDAMB231 in Mammosphere media ([4]; 2.5 uM)	3D sphere count of MDAMB231 in Mammosphere media ([4]; 25 uM)	3D sphere count of PC3 in Prostosphere media ([6]; 0.025 uM)	3D sphere count of PC3 in Prostosphere media ([6]; 0.25 uM)	3D sphere count of PC3 in Prostosphere media ([6]; 2.5 uM)	3D sphere count of PC3 in Prostosphere media ([6]; 25 uM)	3D sphere count of MDAMB231 in Mammosphere media ([4]; 0.0025 uM)	viability at 0.025 µM [4, 9] [%]	viability at 0.25 µM [4, 9] [%]	viability at 2.5 µM [4, 9] [%]	viability at 25 µM [4, 9] [%]	viability at 0.025 µM [6, 11] [%]	viability at 0.25 µM [6, 12] [%]	viability at 2.5 µM [6, 13] [%]	viability at 25 µM [6, 14] [%]	further results
2.07	1.77	0.723	c1ccc2c(-c3ccc4c(c3)OCO4)ccc(OCCCCN3CCOCC3)c2c1 [Formula VIII, 4-(4-(1-(benzo[d][1,3]dioxol-5-yl)naphthalen-4-yloxy)butyl)morpholine]	49(±4)	39(±2)	28(±3)	19(±1)	49(±3)	41(±2)	36(±2)	28(±3)	54(±3)	69	55 ± 2	39	26	59	50	44	34	viability at 0.0025 µM [4, 9]: 76%; IC50 [5, 10]: 1.73 µM; 3D sphere count of PC3 in Prostosphere media ([6]; 0.0025 uM): 57(±2); viability at 0.0025 µM ([6]; GCD = 100% viability): 69%; IC50 ([7]; Homo sapiens, MDA-MB-231, 48 h): 1.15 µM
10.3	4	5.96	c1ccc2c(-c3ccc4c(c3)OCO4)ccc(OCCN3CCOCC3)c2c1 [Formula X, 4-(2-(1-(benzo[d][1,3]dioxol-5-yl)naphthalen-4-yloxy)ethyl)morpholine]	42(±4)	34(±3)	21(±3)	7(±3)	61(±3)	53(±3)	42(±4)	28(±3)	57(±5)	51	41	25	8	72	62	49	33	viability at 0.0025 µM [4, 9]: 69%; IC50 [5, 10]: 4.18 µM; 3D sphere count of PC3 in Prostosphere media ([6]; 0.0025 uM): 74(±4); viability at 0.0025 µM ([6]; GCD = 100% viability): 87%; IC50 ([7]; Homo sapiens, MDA-MB-231, 48 h): 5.36 µM
	2.36		CCOC(=O)N1CCN(CCCCCCOc2c3c(c(-c4ccc5c(c4)OCO5)c4cc(OC)c(OC)cc24)C(=O)OC3)CC1 [Formula III, ethyl 4-(6-(9-(benzo[d][1,3]dioxol-5-yl)-1,3-dihydro-6,7-dimethoxy-1-oxonaphtho[2,3-c]furan-4-yloxy)hexyl)piperazine-1-carboxylate]	41(±2)	35(±3)	30(±4)	17(±4)	49(±3)	38(±4)	29(±4)	23(±3)		53	45	39	22	63	49	37	29	IC50 [1]: 4.84 µM; IC50 [3]: 5.41 µM; 3D sphere count of MDAMB231 in Mammosphere media ([4]; 250 uM): 0(±0); viability at 250 µM [4, 9]: 0%; IC50 [5]: 2.53 µM; 3D sphere count of PC3 in Prostosphere media ([6]; 250 uM): 0(±0); viability at 250 µM ([6]; read-out: % Viability of spheres (PC3), 250 uM, GCD = 100% viability): 0%; IC50 [7]: 6.68 µM

Second part, the compound before the results:

SMILES	IC50 ([1]; 168 h) [µM]	IC50 ([2]; 48 h) [µM]	IC50 ([3]; Homo sapiens, DU-145, 48 h) [µM]	3D sphere count of MDAMB231 in Mammosphere media ([4]; 0.025 uM)	3D sphere count of MDAMB231 in Mammosphere media ([4]; 0.25 uM)	3D sphere count of MDAMB231 in Mammosphere media ([4]; 2.5 uM)	3D sphere count of MDAMB231 in Mammosphere media ([4]; 25 uM)	3D sphere count of PC3 in Prostosphere media ([6]; 0.025 uM)	3D sphere count of PC3 in Prostosphere media ([6]; 0.25 uM)	3D sphere count of PC3 in Prostosphere media ([6]; 2.5 uM)	3D sphere count of PC3 in Prostosphere media ([6]; 25 uM)	3D sphere count of MDAMB231 in Mammosphere media ([4]; 0.0025 uM)	viability at 0.025 µM [4, 9] [%]	viability at 0.25 µM [4, 9] [%]	viability at 2.5 µM [4, 9] [%]	viability at 25 µM [4, 9] [%]	viability at 0.025 µM [6, 11] [%]	viability at 0.25 µM [6, 12] [%]	viability at 2.5 µM [6, 13] [%]	viability at 25 µM [6, 14] [%]	further results
Cl.c1ccc2c(-c3ccc4c(c3)OCO4)ccc(OCCCCCCN3CCOCC3)c2c1 [Formula V, 4-(6-(1-(benzo[d][1,3]dioxol-5-yl)naphthalen-4-yloxy)hexyl)morpholine hydrochloride]				41(±5)	39(±3)	27(±3)	19(±4)	58(±3)	49(±3)	41(±2)	30(±5)										IC50 ([1]; hydrochloride): 3.98 µM; IC50 ([2]; hydrochloride): 6.03 µM; IC50 ([3]; hydrochloride): 9.77 µM; 3D sphere count of MDAMB231 in Mammosphere media ([4]; 250 uM): 0(±0); viability at 0.25 µM ([4]; Homo sapiens, MDA-MB-231, read-out: % Viability of spheres (MDAMB231), 0.25 uM, GCD = 100% viability): 47%; viability at 2.5 µM ([4]; Homo sapiens, MDA-MB-231, read-out: % Viability of spheres (MDAMB231), 2.5 uM, GCD = 100% viability): 33%; viability at 25 µM ([4]; Homo sapiens, MDA-MB-231, read-out: % Viability of spheres (MDAMB231), 25 uM, GCD = 100% viability): 23%; IC50 ([5]; hydrochloride): 2.21 µM; 3D sphere count of PC3 in Prostosphere media ([6]; 250 uM): 0(±0); viability at 0.025 µM [6, 8]: 67%; viability at 0.25 µM [6, 8]: 57%; viability at 2.5 µM [6, 8]: 48%; viability at 25 µM [6, 8]: 35%; IC50 ([7]; hydrochloride): 9.25 µM
O=C1OCc2c1c(-c1ccc3c(c1)OCO3)c1cc3c(cc1c2OCCCCN1CCOCC1)OCO3 [Formula XIII, 4-(4-morpholinobutoxy)-9-(benzo[d][1,3]dioxol-5-yl)-6,7-methylenedioxynaphtho[2,3-c]furan-1(3H)-one]	3.84	8.83	8.85	40(±3)	36(±2)	30(±4)	21(±3)	44(±4)	35(±3)	32(±3)	27(±3)	49(±3)	50	45	38	26	55	44	40	34	viability at 0.0025 µM [4, 9]: 62%; IC50 [5, 10]: 3.03 µM; 3D sphere count of PC3 in Prostosphere media ([6]; 0.0025 uM): 49(±3); viability at 0.0025 µM ([6]; GCD = 100% viability): 62%; IC50 ([7]; Homo sapiens, MDA-MB-231, 48 h): 7.29 µM
